Assay results as given in PubChem BioAssay AID463199 (Broad Institute, 2010).
Calls of active or inactive are those of the source.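 Rule for the calls: active = AC50, the dose giving half-maximal effect, exceeds a fixed cutoff for a compound that rescues yeast growth under heat; inactive = the rest, inconclusive results apart.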

System: S. cerevisiae Burl-1 ts mutant growth, BacTiter-Glo, 38.5C 24 h
Assay: restored growth of temperature-sensitive Burl-1 yeast – whole organism, S. cerevisiae, Burl-1 ts mutant, luminescence, counter-screen for SUMOylation pathway inhibitor project, dose response (AID 463199)

| SMILES | AC50 |
| --- | --- |
| CC(=O)N1CCc2cc(S(=O)(=O)CCC(=O)N3CCN(C(=O)c4ccco4)CC3)ccc21 | > 42 µM (inactive) |
| Cc1ccc(C(=O)N/C(=C\c2cccs2)C(=O)NCCc2c[nH]c3ccccc23)cc1 | > 42 µM (inactive) |
| CC1(OC(=O)CCc2ccccc2)C(=O)C=C2C=C(c3ccc(C#N)cc3)N(C3CCCC3)C=C2C1=O (centres undefined) | > 42 µM (inactive) |
| Cc1ccc(F)cc1NS(=O)(=O)c1ccc(Cl)s1 | > 42 µM (inactive) |
| Cc1nn(C)c(Cl)c1CN1CCN(CCC(C)C)C(CCO)C1 (centres undefined) | > 42 µM (inactive) |
| CC1Cc2ccccc2N1C(=O)CNc1cccc(S(=O)(=O)N2CCCC2)c1 (centres undefined) | > 42 µM (inactive) |
| Cc1ccccc1C(=O)/C=C1\NC(=O)CS1 | > 21 µM (inactive) |
| COc1ccc(CN2CCN(C(=O)c3cc(-c4cccnc4)nc4ccc(Cl)cc34)CC2)c(OC)c1OC | > 42 µM (inactive) |
| Oc1c(Br)cc(Br)cc1C=Nc1ccc2[nH]ncc2c1 | > 42 µM (inactive) |
| CCC(=O)c1c[nH]c(C(=O)NCCCn2ccnc2)c1 | > 42 µM (inactive) |
| Cc1nnc(C)n1/N=C/c1cc2ccccc2nc1Cl | > 42 µM (inactive) |
| CC(C)C(OC(=O)CN1C(=O)COc2ccccc21)C(=O)NC1CCCC1 (centres undefined) | > 42 µM (inactive) |
| Cc1ccc(C(=O)NC(NC(=O)c2ccc(C)cc2)C(Cl)Cl)cc1 | > 42 µM (inactive) |
| COC(=O)[C@@H]1[C@@H](C(=O)OC)C2(c3ccccc3-c3ccccc32)N(c2ccc(Cl)cc2)N1C#N | > 42 µM (inactive) |
| CCc1nc2ccccc2c(C(=O)OC2CCCCC2=O)c1C (centres undefined) | > 42 µM (inactive) |
| CCN(C(=O)COC(=O)c1c(-c2ccccc2)noc1C)c1c(N)n(Cc2ccccc2)c(=O)[nH]c1=O | > 42 µM (inactive) |
| CC1CCCC(C)N1/N=C/c1cc(Br)cc(Br)c1O (centres undefined) | > 42 µM (inactive) |
| C/C(CC(=O)Nc1cccnc1)=N\NC(=O)C(C)Oc1ccc(Cl)cc1Cl (centres undefined) | > 42 µM (inactive) |
| O=C1CC(=O)C(n2cncn2)C(c2ccc(Cl)cc2Cl)C1 (centres undefined) | > 42 µM (inactive) |
| Cc1nc2ccccc2c2ncccc12 | > 42 µM (inactive) |
| Oc1ccc(Br)cc1/C=N/n1c(COc2ccccc2)n[nH]c1=S | > 42 µM (inactive) |
| C#CCn1c(=NC(=O)CN2C(=O)CCC2=O)sc2cccc(OC)c21 | > 42 µM (inactive) |
| COc1cccc2[nH]c(=O)c(-c3ccccc3)cc12 | > 42 µM (inactive) |
| Fc1cccc(Cl)c1CSc1nnc(CN2CCOCC2)n1-c1ccccc1 | > 42 µM (inactive) |
| O=C(Nc1ccc([N+](=O)[O-])cn1)c1ccc2c(c1)OCO2 | > 42 µM (inactive) |

| SMILES | AC50 |
| --- | --- |
| Cc1ccc(S(=O)(=O)/N=C(/Nc2ccc([N+](=O)[O-])cc2[N+](=O)[O-])c2ccccc2)cc1 | > 42 µM (inactive) |
| COCCCn1c(=O)c2ccccc2n(Cc2ccccc2C)c1=O | > 42 µM (inactive) |
| COC(=O)c1ccc(NC(=O)CCN2CCN(c3ccccc3)CC2)cc1 | > 42 µM (inactive) |
| CCCC(=O)Oc1c(S(=O)(=O)c2ccc(C)cc2)c(C)nn1C(C)(C)C | > 42 µM (inactive) |
| Cc1ccc(Cn2c(NCCc3ccccc3)nc3c2c(=O)n(C)c(=O)n3C)cc1 | > 42 µM (inactive) |
| CCCCCC(=O)Nc1ccc(-c2csc(N)n2)cc1 | > 42 µM (inactive) |
| CCOC(=O)C1CCN(C(=O)c2sccc2Cl)CC1 | > 42 µM (inactive) |
| O=C(NCCCN1CCOCC1)C1CCC(=O)N1CCc1ccccc1 (centres undefined) | > 42 µM (inactive) |
| COC(=O)[C@@]12CCCCN1[C@H](c1ccc(-c3ccc(C(C)=O)cc3)cc1)[C@@H]1C(=O)N(C)C(=O)[C@@H]12 | > 42 µM (inactive) |
| CC(SC#N)C(=O)C12CC3CC(CC(C3)C1)C2 (centres undefined) | > 42 µM (inactive) |
| Nc1cc[n+](CC(=O)Nc2ccccc2)cc1 | > 42 µM (inactive) |
| COCCN1C=C(C(=O)OC)C(c2cc3c(cc2Br)OCO3)C(C(=O)OC)=C1 | > 42 µM (inactive) |
| C/C=C/C(=O)N1c2ccc(C)cc2C(C)=CC1(C)C | > 42 µM (inactive) |
| CN(C)c1ccc(C(=O)N2CCCC(CCC(=O)N3CCN(c4ccccn4)CC3)C2)cc1 (centres undefined) | > 42 µM (inactive) |
| CCN(C(=O)Cn1c(=O)oc2ccccc21)c1cccc(C)c1 | > 42 µM (inactive) |
| COc1ccc(C(=O)N/C(=C\c2cn(C)c3ccccc23)C(=O)OCCN(C)C)cc1 | > 42 µM (inactive) |
| O=C(COc1ccc(F)cc1Cl)N(Cc1nnc(-c2ccccc2Cl)o1)C1CC1 | > 42 µM (inactive) |
| O=C(CSc1nnc(CNC(=O)c2ccccc2F)o1)NCCc1ccccc1 | > 42 µM (inactive) |
| CC12CC3(C)CC(C)(C1)CC(C(=O)NC(=S)N1CCCC1)(C2)C3 | > 42 µM (inactive) |
| C/C(=N\NC(=S)Nc1ccccc1)C1Cc2ccccc2C(=O)O1 (centres undefined) | > 42 µM (inactive) |
| COc1ccc(CCNC(=O)CC2C(=O)NCCN2CC(C)(C)C)cc1 (centres undefined) | > 42 µM (inactive) |
| CCc1cccc(C)c1NC(=O)CSc1nnc(-c2cc3cc(Br)ccc3o2)n1CC | > 42 µM (inactive) |
| COc1ccc2c(c1)c(CC(=O)OCC(N)=O)c(C)n2C(=O)c1ccc(Cl)cc1 | > 42 µM (inactive) |
| CSc1ncc2ncn(C3OC(CO)C(O)C3O)c2n1 (centres undefined) | > 42 µM (inactive) |
